Among the test systems are CCRF-CEM; DLD-1; DMS-114; DMS-273; HCT-15; HOP-62; MCF7; MOLT-4; NCI-H226; OVCAR-3; SK-MEL-2; SK-MEL-5; SN12C; U-251; UACC-257; UACC-62; XF498; LXFL 529; TK-10; DU-145.
Holding throughout (test): growth of human tumour cells (NCI), 48 h

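Cultured in 96-well plates, cells were exposed to test compound for 48 hours across five concentrations. At the GI50, growth is halved.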 Activity calls are given as the source filed them. Cut-off read from the data, not from the text of the source: active = GI50 up to about 1.1 µM and inactive = higher.

As to `COC1/C=C\C=C(/C)C(=O)NC2=CC(=O)C=C(C2=O)C(OC)C(C)CC(OC)C(OC)C(C)/C=C(/C)C1OC(N)=O` (stereo not drawn), the GI50 is 0.278 µM (active) in the assay on CCRF-CEM; 1.59 µM (inactive) with DLD-1; 1.12 µM (inactive) with DMS-114; 12 µM (inactive) with DMS-273; 3.38 µM in the assay on HCT-15; 2.92 µM (inactive) with HOP-62. Moreover, the GI50 is 1.28 µM (inactive) in the assay with MCF7; 0.214 µM (active) in the assay on MOLT-4; 21.8 µM (inactive) with NCI-H226; 1.49 µM (inactive) in the assay with OVCAR-3; 2.31 µM (inactive) in the assay on SK-MEL-2; 4.35 µM (inactive) in the assay with SK-MEL-5. The GI50 is 5.25 µM (inactive) with SN12C; 12.7 µM (inactive) in the assay with U-251; 1.37 µM (inactive) with UACC-257; 0.76 µM (active) in the assay on UACC-62; 1.87 µM (inactive) in the assay on XF498.
Take `CCC1=C(C(C)=O)[C@@H]2CCCCC[C@@H](C(=O)OC)C2C1=O` (stereo partly drawn): the GI50 in the assay on CCRF-CEM is > 100 µM (inactive); in the assay with DLD-1, > 100 µM (inactive); in the assay with DMS-114, > 100 µM (inactive); with DMS-273 it was > 100 µM (inactive); in the assay with HCT-15, more than 100 µM; with HOP-62, > 100 µM (inactive). For the same compound, the GI50 in the assay with LXFL 529, with MOLT-4, in the assay with SK-MEL-2, in the assay on SK-MEL-5, with SN12C and with TK-10 was > 100 µM (inactive) in each case. Moreover, the GI50 in the assay on U-251, with UACC-257, in the assay on UACC-62 and in the assay with XF498 was > 100 µM (inactive) each time.
For the compound `CCOC(=O)c1ccc(O)cc1` [ETHYLPARABEN], the GI50 with CCRF-CEM is > 100 µM (inactive); in the assay on DLD-1 it was > 100 µM (inactive); in the assay on DMS-114, > 100 µM (inactive); in the assay with DMS-273, 55.5 µM (inactive); in the assay on HCT-15, more than 100 µM; in the assay with HOP-62, > 100 µM (inactive). Besides, the GI50 with MOLT-4, with NCI-H226, in the assay on SK-MEL-2, in the assay on TK-10, in the assay with U-251 and with UACC-257 was > 100 µM (inactive) in each case. The GI50 with UACC-62 and with XF498 was > 100 µM (inactive) throughout.
Turning to `CCOC(=O)C(CC(C)C)NC(=O)C(Cc1ccc(N(CCCl)CCCl)cc1)NC(C)=O` (stereo not drawn), the GI50 is 0.621 µM (active) with CCRF-CEM; 0.849 µM (active) in the assay with DMS-114; 4.47 µM (inactive) in the assay on DMS-273; 5.93 µM (inactive) in the assay with DU-145; 9.71 µM in the assay with HCT-15; 3.01 µM (inactive) in the assay on HOP-62. Also, the GI50 with LXFL 529 was 12.4 µM (inactive); in the assay on MCF7 it was 3.69 µM (inactive); with NCI-H226, 14.4 µM (inactive); in the assay on OVCAR-3 it was 4.56 µM (inactive); in the assay with SK-MEL-2, 2.45 µM (inactive); in the assay with SK-MEL-5, 3.3 µM (inactive). The GI50 with SN12C is 2.45 µM (inactive); in the assay with TK-10, 15.2 µM (inactive); with U-251, 7.91 µM (inactive); in the assay with UACC-257, 3.74 µM (inactive); in the assay with UACC-62 it was 1.4 µM (inactive); in the assay with XF498, 0.406 µM (active).
Turning to `COC(=O)c1nc(-c2ccc3c(n2)C(=O)C(=N)C(OC)=C3O)c(N)c(-c2ccc(OC)c(OC)c2O)c1C`, the GI50 was 2.56 µM (inactive) with CCRF-CEM; 1.17 µM (inactive) in the assay on DLD-1; 0.415 µM (active) in the assay with DMS-114; 0.303 µM (active) in the assay with DMS-273; 1.13 µM in the assay with HCT-15; 0.194 µM (active) in the assay on HOP-62. The GI50 is 0.153 µM (active) in the assay on MCF7; 2.04 µM (inactive) in the assay with MOLT-4; 0.324 µM (active) in the assay with NCI-H226; 0.445 µM (active) in the assay on OVCAR-3; 1.47 µM (inactive) with SK-MEL-2; 0.413 µM (active) with SK-MEL-5. Also, the GI50 in the assay on SN12C was 1.16 µM (inactive); in the assay on U-251, 0.377 µM (active); with UACC-257, 0.419 µM (active); with UACC-62, 0.29 µM (active); with XF498, 1.18 µM (inactive).
Turning to `CCCSCC(P(=O)(O)O)P(=O)(O)O.NC1CCCCC1`, the GI50 was > 100 µM (inactive) with CCRF-CEM; > 100 µM (inactive) in the assay with DLD-1; > 100 µM (inactive) with DMS-114; > 100 µM (inactive) in the assay on DMS-273; more than 100 µM with HCT-15; > 100 µM (inactive) in the assay with HOP-62. The GI50 in the assay on MCF7 is > 100 µM (inactive); in the assay on MOLT-4, > 100 µM (inactive); in the assay on NCI-H226, > 100 µM (inactive); with OVCAR-3 it was 55.7 µM (inactive); in the assay with SK-MEL-2, > 100 µM (inactive); in the assay with SK-MEL-5, > 100 µM (inactive). In addition, the GI50 in the assay on SN12C, in the assay with U-251, in the assay on UACC-257, in the assay with UACC-62 and with XF498 was > 100 µM (inactive) in each case.
With `C=CCCC(=O)CC(=O)OCc1ccccc1`, the GI50 with CCRF-CEM was > 100 µM (inactive); in the assay on DLD-1 it was > 100 µM (inactive); with DMS-114, > 100 µM (inactive); with DMS-273, > 100 µM (inactive); in the assay with HCT-15, more than 100 µM; with HOP-62, > 100 µM (inactive). The GI50 with LXFL 529, in the assay on MOLT-4, with OVCAR-3, with SK-MEL-2, in the assay on SK-MEL-5 and with SN12C was > 100 µM (inactive) in each case. In addition, the GI50 with TK-10, with U-251, with UACC-257, in the assay with UACC-62 and with XF498 was > 100 µM (inactive) throughout.
Turning to `CSCC[C@@H]1C(=O)N(C)[C@H](C(C)(C)C)N1C(=O)c1ccccc1`, the GI50 with CCRF-CEM was > 100 µM (inactive); in the assay with DLD-1 it was > 100 µM (inactive); in the assay on DMS-114, > 100 µM (inactive); in the assay on DMS-273, > 100 µM (inactive); in the assay on HCT-15, more than 100 µM; in the assay with HOP-62, > 100 µM (inactive). The GI50 in the assay with MCF7, in the assay on MOLT-4, in the assay on NCI-H226, in the assay with OVCAR-3, in the assay with SK-MEL-2 and with SK-MEL-5 was > 100 µM (inactive) in each case. Further, the GI50 in the assay with SN12C, with U-251, with UACC-257, in the assay with UACC-62 and in the assay on XF498 was > 100 µM (inactive) throughout.
For the compound `COc1ccccc1/N=N/c1c(-c2ccccc2)nn(C(=O)CC(=O)Nc2ccccc2Cl)c1-c1ccccc1`, the GI50 is 77.8 µM (inactive) in the assay with CCRF-CEM; > 100 µM (inactive) in the assay with DLD-1; > 100 µM (inactive) with DMS-114; > 100 µM (inactive) in the assay on DMS-273; more than 100 µM in the assay on HCT-15; > 100 µM (inactive) in the assay with HOP-62. Moreover, the GI50 is > 100 µM (inactive) in the assay with LXFL 529; 81.8 µM (inactive) with MOLT-4; > 100 µM (inactive) with NCI-H226; > 100 µM (inactive) in the assay with OVCAR-3; > 100 µM (inactive) in the assay with SK-MEL-5; > 100 µM (inactive) with SN12C. The GI50 in the assay on TK-10, in the assay on U-251, with UACC-257, in the assay on UACC-62 and with XF498 was > 100 µM (inactive) throughout.
As for `CCCNC(=O)Nc1c([N+](=O)[O-])cc(C(F)(F)F)cc1[N+](=O)[O-]`, the GI50 was > 100 µM (inactive) in the assay with CCRF-CEM; > 100 µM (inactive) in the assay on DMS-273; 51.8 µM in the assay on HCT-15; > 100 µM (inactive) with HOP-62; 55.2 µM (inactive) with LXFL 529; > 100 µM (inactive) in the assay with MOLT-4. Moreover, the GI50 in the assay with NCI-H226 is > 100 µM (inactive); with OVCAR-3, 22.3 µM (inactive); in the assay with SK-MEL-2 it was > 100 µM (inactive); in the assay on SK-MEL-5 it was 28.4 µM (inactive); with TK-10, > 100 µM (inactive); in the assay with U-251, > 100 µM (inactive). Further, the results for the GI50 with UACC-257, in the assay on UACC-62 and in the assay with XF498 were 36.3 µM (inactive), 37.3 µM (inactive) and 35.6 µM (inactive), respectively.
Turning to `Cc1ccc(SC(CCC(Sc2ccc(C)cc2)Sc2ccc(C)cc2)Sc2ccc(C)cc2)cc1`, the GI50 with CCRF-CEM was > 100 µM (inactive); in the assay on DLD-1, > 100 µM (inactive); with DMS-114, > 100 µM (inactive); in the assay with DMS-273 it was > 100 µM (inactive); in the assay on HCT-15 it was more than 100 µM; in the assay on HOP-62, > 100 µM (inactive). Besides, the GI50 with MOLT-4, in the assay with OVCAR-3, in the assay with SK-MEL-2, in the assay on SK-MEL-5, with SN12C and with TK-10 was > 100 µM (inactive) in each case. The GI50 with U-251, with UACC-257, in the assay with UACC-62 and in the assay on XF498 was > 100 µM (inactive) throughout.
As for `NCCSc1nc(N)c2ncn(C3OC(CO)C(O)C3O)c2n1` (stereo not drawn), the GI50 was > 100 µM (inactive) with CCRF-CEM; > 100 µM (inactive) in the assay on DLD-1; > 100 µM (inactive) in the assay on DMS-114; > 100 µM (inactive) in the assay with DMS-273; more than 100 µM in the assay on HCT-15; > 100 µM (inactive) with HOP-62. In addition, the GI50 in the assay on MOLT-4, with NCI-H226, in the assay with OVCAR-3, in the assay on SK-MEL-2, in the assay on SK-MEL-5 and with SN12C was > 100 µM (inactive) throughout. Besides, the GI50 with TK-10, in the assay on U-251, in the assay on UACC-257, with UACC-62 and in the assay with XF498 was > 100 µM (inactive) each time.

Source of the values: ChEMBL document CHEMBL1201862, “PubChem BioAssay data set” (2004).
